Columns and labels:
3T3-L1 adipocytes [1] = assay: Adipogenesis in 3T3-L1 adipocytes cultured with inhibitors of intracellular signaling pathways (AdipoRed); assay type: cell-based, mouse; conditions: for Lipogenesis/adipogenesis with the inhibitor alone: added two days after differentiation, cultured two days, genistein 1 or 10 μM, Wortmannin 10 or 100 nM, PD98059 1 or 10 μM, Bay 11-7082 1 or 10 nM, FIG. 6A-D
Method: (§1) In yet another experiment, to search for the involvement of intracellular signaling factors, the culture fluid was substituted with a culture fluid containing DMEM, which contained 10% FBS and insulin (10 μg/ml), and a vehicle (1% ethanol) or DHMBA (1 or 10 μM) two days after the differentiation culture. The cells were cultured for another two days in a culture fluid containing signaling inhibitory factors, such as genistein (1 or 10 μM), Wortmannin (10 or 100 nM), PD98059 (1 or 10 μM), or Bay 11-7082 (1 or 10 nM). After the cell culture, the amount of intracellular lipid (triglyceride) formation was quantified using AdipoRed Assay Reagent (Lonza, Walkersville, MD, USA) [19 to 21]. Fluorescence was measured at an excitation of 485 nm and an emission of 570 nm using a 96-well plate reader (μQuant, Bio-Tek Instruments).

PPARγ = assay: Western blotting, PPARγ level in 3T3-L1 adipocytes; assay type: cell-based, mouse; conditions: DHMBA 10 μM, day 2 to 4 of differentiation; FIG. 7
Method: (§2) 3T3-L1 preadipocytes (1×10^6 cells/100 mm dish used, in 10 ml of culture fluid) were cultured for three days, at which point they reached sub-confluence, in DMEM containing 10% BCS and 1% P/S. Then, the cells were cultured for two days in a DMEM differentiation culture fluid containing 10% FBS, 1% P/S, 0.5 mM IBMX, and 1 μM dexamethasone. […] After the culture, the culture dish was washed three times with cold PBS (10 ml) to eliminate floating cells and dead cells, and adhering cells were scraped using a cell lysis solution containing protease and protein phosphatase inhibitors (Roche Diagnostics, Indianapolis, IN, USA). Next, the cell lysates were centrifuged for 10 minutes at 17,000×g at 4° C. The concentration of proteins in the supernatant was quantified using Bio-Rad Protein Assay Dye (Bio-Rad Laboratories, Inc., Hercules, CA, USA) with bovine serum albumin as a standard. The extracted protein samples were stored at −80° C. until they were used. […]
(§3) After the incubation, the PVDF membrane was incubated at room temperature for 60 minutes in a horseradish peroxidase-conjugated secondary antibody (Santa Cruz Biotechnology, Inc., mouse sc-2005 or rabbit sc-2305; 1:1,000 dilution). Protein bands transferred to the PVDF membrane were detected on an X-ray film using a chemiluminescent substrate (catalog No. 34577, Thermo Scientific, Rockford, IL, USA). […]

[2] = tested on: metastatic prostate cancer cells; conditions: earlier report, no details given; cited from earlier work
3T3-L1 preadipocytes [3] = assay: Number of cells in the differentiation process of 3T3-L1 preadipocytes; assay type: cell-based, mouse; conditions: DHMBA 1 or 10 μM
Method: After the culture, adhering cells were separated from each well by adding an aseptic solution containing 0.05% trypsin and EDTA (0.1 ml per well) in PBS (Thermo Fisher Scientific, Waltham, MA, USA) not containing Ca^2+/Mg^2+ and incubating the cells for two minutes. Afterward, 0.9 ml of DMEM containing 10% FBS was added to each well to prepare cell suspensions. In order to measure the number of living cells, a medium (0.1 ml) containing suspension cells was mixed with 0.1 ml of 0.5% trypan blue staining solution. The living cells were counted under a microscope (Olympus MTV-3) using a cell counter (Line Seiki H-102P, Tokyo, Japan) and a hemocytometer (Sigma-Aldrich, St. Louis, Missouri). Two counts were averaged in each measurement. The number of cells was shown as the number per well of a culture plate. […]
First, to quantify the effect of DHMBA on the number of cells, a vehicle (1% ethanol as the final concentration) or DHMBA (1 or 10 μM) was added to the differentiation-inducing culture fluid on day 0 of differentiation starting culture or after two days. After zero to two days of the differentiation culture or after two to four days of the culture, the number of cells adhered to a culture dish was measured as described in the previous section.

Akt = assay: Western blotting, Akt level in 3T3-L1 adipocytes; assay type: cell-based, mouse; conditions: DHMBA 10 μM, day 2 to 4 of differentiation; FIG. 7
Method: as §2, §3

PI3 kinase 100α = assay: Western blotting, PI3 kinase 100α level in 3T3-L1 adipocytes; assay type: cell-based, mouse; conditions: DHMBA 10 μM, day 2 to 4 of differentiation; FIG. 7
Method: as §2, §3

3T3-L1 preadipocytes [4] = assay: Cell proliferation of 3T3-L1 preadipocytes (living cell count); assay type: cell-based, mouse
Method: […] Furthermore, in an experiment to measure cell proliferation, 3T3-L1 preadipocytes (1×10^5/ml per well of a 24-well plate) were cultured for three days in a culture fluid containing a vehicle (1% ethanol as the final concentration) or DHMBA (0.1, 1, 10, 100, or 1000 μM).
(§4) After the culture, adhering cells were separated from each well by adding an aseptic solution containing 0.05% trypsin and EDTA (0.1 ml per well) in PBS (Thermo Fisher Scientific, Waltham, MA, USA) not containing Ca^2+/Mg^2+ and incubating the cells for two minutes. Afterward, 0.9 ml of DMEM containing 10% FBS was added to each well to prepare cell suspensions. In order to measure the number of living cells, a medium (0.1 ml) containing suspension cells was mixed with 0.1 ml of 0.5% trypan blue staining solution. The living cells were counted under a microscope (Olympus MTV-3) using a cell counter (Line Seiki H-102P, Tokyo, Japan) and a hemocytometer (Sigma-Aldrich, St. Louis, Missouri). Two counts were averaged in each measurement. The number of cells was shown as the number per well of a culture plate.

C/EBPα = assay: Western blotting, C/EBPα level in 3T3-L1 adipocytes; assay type: cell-based, mouse; conditions: DHMBA 10 μM, day 2 to 4 of differentiation; FIG. 7
Method: as §2, §3

phosphorylated MAPK = assay: Western blotting, phosphorylated MAPK level in 3T3-L1 adipocytes; assay type: cell-based, mouse; conditions: DHMBA 10 μM, day 2 to 4 of differentiation; FIG. 7
Method: as §2, §3

3T3-L1 adipocytes [5] = assay: Lipid accumulation in 3T3-L1 adipocytes (Oil Red O staining); assay type: cell-based, mouse; conditions: DHMBA 0.1, 1, 10 or 100 μM on day 0 and after two days of differentiation culture
Method: In order to understand the influence of DHMBA on the differentiation of 3T3-L1 preadipocytes, 3T3-L1 preadipocytes (5×10^4 cells/ml per well of a 24-well plate) were cultured for three days, at which point they reached sub-confluence, in 10% bovine calf serum (BCS). After the cells reached sub-confluence (on day 0), the culture fluid was changed to a DMEM differentiation-inducing culture fluid containing 10% FBS, 1% P/S, 0.5 mM IBMX, 1 μM dexamethasone, and insulin (10 μg/ml), and the cells were cultured for another two days. […]
In an additional experiment to understand the effect of DHMBA on the content of lipids in 3T3-L1 adipocytes, a vehicle (1% ethanol as the final concentration) or DHMBA (0.1, 1, 10, or 100 μM) was included in the differentiation-inducing culture fluid to culture the cells from day 0 of the differentiation-inducing culture to four days later. In order to quantify the lipid content (triglycerides) after the cell culture, the cells in the 24-well plate were gently washed twice with PBS and fixed with 4% formaldehyde dissolved in PBS for 30 minutes. […] Furthermore, in order to quantify the lipid content, the Oil Red stain was extracted with isopropanol. […] The eluate was used to measure the absorbance at 510 nm with a spectrophotometer (μQuant, Bio-Tek Instruments).

3T3-L1 adipocytes [6] = assay: Adipogenesis in 3T3-L1 adipocytes (AdipoRed Assay Reagent); assay type: cell-based, mouse
Method: 3T3-L1 preadipocytes (10^4 cells/0.2 ml per well of a 96-well plate) were cultured for three days, at which point they reached sub-confluence, in DMEM containing 10% BCS and 1% P/S. After the sub-confluence (on day 0), the cells were cultured in a differentiation-inducing culture fluid containing 10% FBS, 1% P/S, 0.5 mM IBMX, and 1 μM dexamethasone with the inclusion of a vehicle (1% ethanol as the final concentration) or DHMBA (0.1, 1, 10, or 100 μM). Two days later, the culture fluid was replaced with a DMEM culture fluid containing insulin (10 μg/ml) without containing 10% FBS or DHMBA, and then, the cells were cultured for another two days.
In another experiment, the cells were cultured in a differentiation culture fluid not containing DHMBA on day 0 of differentiation-inducing culture. Two days later, the culture fluid was replaced with a DMEM culture fluid containing 10% FBS and insulin (10 μg/ml) that contained any of a vehicle (1% ethanol as the final concentration) and DHMBA (0.1, 1, 10, or 100 μM), and then, the cells were cultured for another two days.
as §1

3T3-L1 preadipocytes [7] = assay: Cell death of sub-confluent 3T3-L1 preadipocytes (cell count); assay type: cell-based, mouse; conditions: sub-confluent cells cultured another two days; DHMBA 0.1-1000 μM tested, effect at 1000 μM; FIG. 2C
Method: In an experiment to measure cell death, 3T3-L1 preadipocytes (1×10^5/ml per well of a 24-well plate) were cultured for three days in a DMEM culture fluid containing 10% BCS and 1% P/S. The cells that reached sub-confluence were cultured for another 48 hours in the presence of a vehicle (1% ethanol as the final concentration) or DHMBA (0.1, 1, 10, 100, or 1000 μM) to examine the variation in the number of cells.
as §4

MAPK = assay: Western blotting, MAPK level in 3T3-L1 adipocytes; assay type: cell-based, mouse; conditions: DHMBA 10 μM, day 2 to 4 of differentiation; FIG. 7
Method: as §2, §3

NF-κB p65 = assay: Western blotting, NF-κB p65 level in 3T3-L1 adipocytes; assay type: cell-based, mouse; conditions: DHMBA 10 μM, day 2 to 4 of differentiation; FIG. 7
Method: as §2, §3

mTOR = assay: Western blotting, mTOR level in 3T3-L1 adipocytes; assay type: cell-based, mouse; conditions: DHMBA 10 μM, day 2 to 4 of differentiation; FIG. 7
Method: as §2, §3

With Cc1ccc(S(=O)(=O)/C=C/C#N)cc1 [Bay 11-7082, reference compound] as the molecule, how does the “Lipogenesis/adipogenesis with the inhibitor alone” value (3T3-L1 adipocytes [1]) read?
Its value is “inhibited”.

Which PPARγ protein level (PPARγ) does the source give for COc1c(O)cc(CO)cc1O [DHMBA, 3,5-dihydroxy-4-methoxybenzyl alcohol] here?
The PPARγ protein level was “reduced”.

What about the “Proliferation of metastatic prostate cancer cells” value [2] of the same molecule?
Its value is “suppress the proliferation”.

And the “Number of cells, differentiation day 2 to 4” value (3T3-L1 preadipocytes [3]; culture fluid containing insulin (10 μg/ml), another two days, FIG. 3C)?
Its value is “not varied”.

And the “Number of cells, differentiation day 0 to 2” value (3T3-L1 preadipocytes [3]; differentiation-inducing culture fluid (IBMX, dexamethasone, insulin), two days, FIG. 3B)?
The value was “not varied”.

And the “Inhibition of adipogenesis in the presence of Bay 11-7082” value (3T3-L1 adipocytes [1]; DHMBA 1 or 10 μM with Bay 11-7082 1 or 10 nM, FIG. 6D)?
The value was “further enhanced”.

And the “Inhibition of adipogenesis in the presence of PD98059” value (3T3-L1 adipocytes [1]; DHMBA 1 or 10 μM with PD98059 1 or 10 μM, FIG. 6C)?
The value was “further enhanced”.

And the “Inhibition of adipogenesis in the presence of Wortmannin” value (3T3-L1 adipocytes [1]; DHMBA 1 or 10 μM with Wortmannin 10 or 100 nM, FIG. 6B)?
Its value is “further enhanced”.

What about the “Adipogenesis in the presence of genistein” value (3T3-L1 adipocytes [1]; DHMBA 1 or 10 μM with genistein 1 or 10 μM, FIG. 6A) of the same molecule?
The value was “inhibited adipogenesis”.

What about the Akt protein level (Akt) of the same molecule?
Its Akt protein level is “reduction”.

And the “PI3 kinase 100α protein level” value (PI3 kinase 100α)?
The value was “reduction”.

And the “Cell proliferation (number of cells), time course” value (3T3-L1 preadipocytes [4]; DHMBA 10 μM, cultured one to five days, effect at three to five days, FIG. 2A)?
Its value is “suppressed”.

What about the “Cell proliferation (number of cells), concentration dependence” value (3T3-L1 preadipocytes [4]; cultured three days, DHMBA 0.1, 1, 10, 100 or 1000 μM, FIG. 2B) of the same molecule?
Its value is “suppressed at concentrations ranging from 1 μM to 1000 μM”.

And the C/EBPα protein level (C/EBPα)?
The C/EBPα protein level was “reduced”.

What about the “Phosphorylated MAPK protein level” value (phosphorylated MAPK) of the same molecule?
Its value is “reduction”.

And the “Lipid accumulation (Oil Red O stained images)” value (3T3-L1 adipocytes [5]; FIG. 4A)?
Its value is “reduced lipid accumulation”.

And the “Lipid (triglyceride) content in the cells (absorbance at 510 nm)” value (3T3-L1 adipocytes [5]; FIG. 4B)?
Its value is “decrease was confirmed”.

What about the “Adipogenesis (intracellular lipid formation), DHMBA zero to four days after the differentiation” value (3T3-L1 adipocytes [6]; DHMBA 1, 10 or 100 μM (0.1 μM also tested), FIG. 5A) of the same molecule?
The value was “suppressed adipogenesis”.

What about the “Adipogenesis (intracellular lipid formation), DHMBA zero to two days after the differentiation” value (3T3-L1 adipocytes [6]; DHMBA 1, 10 or 100 μM, FIG. 5B) of the same molecule?
Its value is “suppression was also observed”.

What about the “Adipogenesis (intracellular lipid formation), DHMBA two to four days after the differentiation” value (3T3-L1 adipocytes [6]; DHMBA 1, 10 or 100 μM, late stage, FIG. 5C) of the same molecule?
The value was “suppression was also observed”.

What about the “Cell death (number of cells)” value (3T3-L1 preadipocytes [7]) of the same molecule?
Its value is “reduced”.

And the MAPK protein level (MAPK)?
Its MAPK protein level is “reduction”.

What about the “NF-κB p65 protein level” value (NF-κB p65) of the same molecule?
The value was “reduced”.

And the mTOR protein level (mTOR)?
Its mTOR protein level is “reduction”.

With COc1cccc(-c2cc(=O)c3ccccc3o2)c1N [PD98059, reference compound] as the molecule, how does the “Lipogenesis/adipogenesis with the inhibitor alone” value (3T3-L1 adipocytes [1]) read?
Its value is “inhibited”.

For COC[C@H]1OC(=O)c2coc3c2[C@@]1(C)C1=C(C3=O)[C@@H]2CCC(=O)[C@@]2(C)C[C@H]1OC(C)=O [Wortmannin, reference compound], which “Lipogenesis/adipogenesis with the inhibitor alone” value (3T3-L1 adipocytes [1]) is on record?
The value was “inhibited”.

With O=c1c(-c2ccc(O)cc2)coc2cc(O)cc(O)c12 [genistein, reference compound] as the molecule, how does the “Lipogenesis/adipogenesis with the inhibitor alone” value (3T3-L1 adipocytes [1]) read?
The value was “not altered”.

From patent US20260283977A1, “ADIPOCYTE GROWTH INHIBITOR” (WATANABE OYSTER LABORATORY CO., LTD., priority 2023, published 2026)
